Results as given in paper PMC9518248, “Inhibition of Toxoplasma gondii by 1,2,4-triazole-based compounds: marked improvement in selectivity relative to the standard therapy pyrimethamine and sulfadiazine” (Journal of Enzyme Inhibition and Medicinal Chemistry, 2022).
Converted amounts (≈) assume the structure as drawn. Like-named read-outs stand apart in the source and are kept apart here.

How the values were obtained:
[1] = system: mouse fibroblasts L929 cells; design: method as in PMID 31022878, PMID 30744161; settings: thiosemicarbazides 1a–27a; cited from earlier work
T. gondii RH-GFP [2] = system: T. gondii RH-GFP; design: method as in PMID 31022878, PMID 30744161; settings: thiosemicarbazides 1a–27a, cited from earlier work; for SI: CC30/IC50Tg; for IC50Tg: T. gondii infected Hs27 cells
[3] = system: mouse fibroblasts L929 cells; assay: Cell viability assay (MTT, ISO 10993-5); assay type: cell-based; settings: 24 h, highest dilution causing 30% or higher destruction of cells
Protocol: Culture medium RPMI 1640, without phenol red (Biowest, Nuaille, France) supplemented with 10% FBS, 2 mM […] penicillin, 100 μg/mL streptomycin were used. Briefly, 1 × 10^4/well of L929 cells were placed in 96-well plates and incubated for 24 h at 37 °C and 10% CO2. Afterwards, the old culture medium was replaced with 100 μL of the compound, drug or inhibitor, diluted in culture medium and the cells treated for 24 h. Additionally, cells were treated with 0.03-4.0% concentration of DMSO as the solvent (data not shown). Then, 50 μL of 1 mg/mL of MTT solution in RPMI 1640 without phenol red was added to each well and incubated for 2 h at 37 °C and 10% CO2. Next, cell culture medium was aspirated carefully and 150 μL of DMSO was added to each well, and the plates were gently mixed. Then, 25 μL 0.1 M glycine buffer (pH 10.5) (Sigma-Aldrich) was added. The optical density at 570 nm using a multi-mode microplate reader SpectraMax® i3 (Syngen, Taipei City, Taiwan) was recorded. The results were expressed as a percentage of viability compared to untreated cells. All experiments were performed in triplicate. The reported methyl thiazolyltetrazole (MTT) method was used to study in vitro cytotoxic profile of the s-triazoles 1b-27b to the host cells (L929). Experiments were performed in accordance with the international standard IS0-10993-5:2009. […] The data for acyclic precursors 1a-27a are also included for comparison[39]^,[40].

T. gondii RH-GFP [4] = assay: Antiparasitic assay: T. gondii RH-GFP proliferation in Hs27 cells; assay type: cell-based, Toxoplasma gondii; settings: for IC50: Toxoplasma gondii, read-out: IC50Tg; for SI: selectivity index, CC30 (L929)/IC50Tg
[5] = T. gondii RH-GFP in Hs27 cells, 96 h, values above highest tested concentration extrapolated

Row | Compound | CC30 [1] [µg/mL] | SI (T. gondii RH-GFP [2]) | IC50Tg (T. gondii RH-GFP [2]) | CC30 [3] [µg/mL] | IC50 (T. gondii RH-GFP [4]; [5]) [µg/mL] | SI (T. gondii RH-GFP [4]) | melting point [°C] | IC50 (T. gondii RH-GFP [4]; HS27, 96 h) [µg/mL]
1 | Cc1nc[nH]c1C(=O)NNC(=S)Nc1ccccc1F [1a] | 289.6 (≈ 987 µM) | 4.21 | 68.83 µg/mL (≈ 235 µM) |  |  |  |  | 
2 | Cc1nc[nH]c1-c1n[nH]c(=S)n1-c1ccccc1F [1b] |  |  |  | 1270.57 (≈ 4620 µM) | 220 (≈ 799 µM) | 5.78 |  | 
3 | Cc1nc[nH]c1C(=O)NNC(=S)Nc1cccc(F)c1 [2a] | 125.17 (≈ 427 µM) | 1.10 | 113.45 µg/mL (≈ 387 µM) |  |  |  |  | 
4 | Cc1nc[nH]c1-c1n[nH]c(=S)n1-c1cccc(F)c1 [2b, 4–(3-fluorophenyl)-5–(4-methylimidazol-5-yl)-1,2,4-triazole-3-thione] |  |  |  |  | 103 (≈ 374 µM) | 24.26 | 284 | 
5 | Cc1nc[nH]c1C(=O)NNC(=S)Nc1ccc(F)cc1 [3a] | 266.01 (≈ 907 µM) | 2.41 | 110.31 µg/mL (≈ 376 µM) |  |  |  |  | 
6 | Cc1nc[nH]c1-c1n[nH]c(=S)n1-c1ccc(F)cc1 [3b] |  |  |  | 113.71 (≈ 413 µM) | 206 (≈ 748 µM) | 0.55 |  | 
7 | Cc1nc[nH]c1C(=O)NNC(=S)Nc1ccccc1Cl [4a] | 143.15 (≈ 462 µM) | 4.02 | 35.61 µg/mL (≈ 115 µM) |  |  |  |  | 
8 | Cc1nc[nH]c1-c1n[nH]c(=S)n1-c1ccccc1Cl [4b, 4–(2-chlorophenyl)-5–(4-methylimidazol-5-yl)-1,2,4-triazole-3-thione] |  |  |  | 698.23 (≈ 2390 µM) | 345 (≈ 1180 µM) | 2.03 | 243.4 | 
9 | Cc1nc[nH]c1C(=O)NNC(=S)Nc1cccc(Cl)c1 [5a] | 96.78 (≈ 312 µM) |  | 25.70 µg/mL (≈ 83 µM) |  |  |  |  | 
10 | Cc1nc[nH]c1-c1n[nH]c(=S)n1-c1cccc(Cl)c1 [5b, 4–(3-chlorophenyl)-5–(4-methylimidazol-5-yl)-1,2,4-triazole-3-thione] |  |  |  | 721.27 (≈ 2470 µM) | 310 (≈ 1060 µM) | 2.32 | 297.8 | 
11 | Cc1nc[nH]c1C(=O)NNC(=S)Nc1ccc(Cl)cc1 [6a] | 94.12 (≈ 304 µM) | 1.28 | 73.37 µg/mL (≈ 237 µM) |  |  |  |  | 
12 | Cc1nc[nH]c1-c1n[nH]c(=S)n1-c1ccc(Cl)cc1 [6b, 4–(4-chlorophenyl)-5–(4-methylimidazol-5-yl)-1,2,4-triazole-3-thione] |  |  |  | 460.26 (≈ 1580 µM) | 267 (≈ 914 µM) | 1.73 | 255.8 | 
13 | Cc1nc[nH]c1C(=O)NNC(=S)Nc1ccccc1Br [7a] | 205.31 (≈ 580 µM) | 7.43 | 27.65 µg/mL (≈ 78.1 µM) |  |  |  |  | 
14 | Cc1nc[nH]c1C(=O)NNC(=S)Nc1cccc(Br)c1 [8a] | 96.12 (≈ 271 µM) | 6.15 | 15.64 µg/mL (≈ 44.2 µM) |  |  |  |  | 
15 | Cc1nc[nH]c1C(=O)NNC(=S)Nc1ccc(Br)cc1 [9a] | 48.89 (≈ 138 µM) | 3.36 | 14.57 µg/mL (≈ 41.1 µM) |  |  |  |  | 
16 | Cc1nc[nH]c1C(=O)NNC(=S)Nc1ccccc1I [10a] | 101.58 (≈ 253 µM) | 5.00 | 20.31 µg/mL (≈ 50.6 µM) |  |  |  |  | 
17 | Cc1nc[nH]c1C(=O)NNC(=S)Nc1cccc(I)c1 [11a] | 85.57 (≈ 213 µM) | 8.31 | 10.3 µg/mL (≈ 25.7 µM) |  |  |  |  | 
18 | Cc1nc[nH]c1C(=O)NNC(=S)Nc1ccc(I)cc1 [12a] | 71.58 (≈ 178 µM) | 3.25 | 22.01 µg/mL (≈ 54.9 µM) |  |  |  |  | 
19 | Cc1nc[nH]c1C(=O)NNC(=S)Nc1cc(F)ccc1F [13a] | 158.49 (≈ 509 µM) | 2.95 | 53.7 µg/mL (≈ 172 µM) |  |  |  |  | 
20 | Cc1nc[nH]c1-c1n[nH]c(=S)n1-c1cc(F)ccc1F [13b, 4–(2,5-difluorophenyl)-5–(4-methylimidazol-5-yl)-1,2,4-triazole-3-thione] |  |  |  |  | 224 (≈ 765 µM) | 11.14 | 253.9 | 

Row | Compound | CC30 [1] [µg/mL] | SI (T. gondii RH-GFP [2]) | IC50Tg (T. gondii RH-GFP [2]) | CC30 [3] [µg/mL] | IC50 (T. gondii RH-GFP [4]; [5]) [µg/mL] | SI (T. gondii RH-GFP [4]) | melting point [°C] | IC50 (T. gondii RH-GFP [4]; HS27, 96 h) [µg/mL]
21 | Cc1ccccc1NC(=S)NNC(=O)c1[nH]cnc1C [14a] | 288.4 (≈ 997 µM) | 1.92 | ∼150.31 µg/mL |  |  |  |  | 
22 | Cc1cccc(NC(=S)NNC(=O)c2[nH]cnc2C)c1 [15a] | 50.12 (≈ 173 µM) | 1.35 | 37.15 µg/mL (≈ 128 µM) |  |  |  |  | 
23 | Cc1ccc(NC(=S)NNC(=O)c2[nH]cnc2C)cc1 [16a] | 34.67 (≈ 120 µM) | 0.60 | ∼57.58 µg/mL |  |  |  |  | 
24 | Cc1ccc(-n2c(-c3[nH]cnc3C)n[nH]c2=S)cc1 [16b] |  |  |  | 1113.53 (≈ 4100 µM) | 110 (≈ 406 µM) | 10.11 |  | 
25 | Cc1ccc(NC(=S)NNC(=O)c2[nH]cnc2C)cc1Cl [17a] | 28.18 (≈ 87 µM) | 1.51 | 18.62 µg/mL (≈ 57.5 µM) |  |  |  |  | 
26 | COc1ccccc1NC(=S)NNC(=O)c1[nH]cnc1C [18a] | 138.04 (≈ 452 µM) | 4.17 | 33.11 µg/mL (≈ 108 µM) |  |  |  |  | 
27 | COc1ccccc1-n1c(-c2[nH]cnc2C)n[nH]c1=S [18b, 4–(2-methoxyphenyl)-5–(4-methylimidazol-5-yl)-1,2,4-triazole-3-thione] |  |  |  |  | 93.2 (≈ 324 µM) |  | 145.2 | 
28 | COc1cccc(NC(=S)NNC(=O)c2[nH]cnc2C)c1 [19a] | 165.96 (≈ 543 µM) | 2.08 | 79.65 µg/mL (≈ 261 µM) |  |  |  |  | 
29 | COc1cccc(-n2c(-c3[nH]cnc3C)n[nH]c2=S)c1 [19b, 4–(3-methoxyphenyl)-5–(4-methylimidazol-5-yl)-1,2,4-triazole-3-thione] |  |  |  |  | 96.8 (≈ 337 µM) |  | 228.8 | 
30 | COc1ccc(NC(=S)NNC(=O)c2nc[nH]c2C)cc1 [20a] | 389.05 (≈ 1270 µM) | 3.41 | 113.99 µg/mL (≈ 373 µM) |  |  |  |  | 
31 | COc1ccc(NC(=S)NNC(=O)c2[nH]cnc2C)cc1OC [21a] | >500 |  | ∼174.98 µg/mL |  |  |  |  | 
32 | CCOc1ccc(NC(=S)NNC(=O)c2[nH]cnc2C)cc1 [22a] | 500 (≈ 1570 µM) | 5.25 | 95.28 µg/mL (≈ 298 µM) |  |  |  |  | 
33 | CC(=O)c1cccc(NC(=S)NNC(=O)c2[nH]cnc2C)c1 [23a] | 206.54 (≈ 651 µM) | 2.16 | 95.50 µg/mL (≈ 301 µM) |  |  |  |  | 
34 | CC(=O)c1cccc(-n2c(-c3[nH]cnc3C)n[nH]c2=S)c1 [23b, 4–(3-acetylphenyl)-5–(4-methylimidazol-5-yl)-1,2,4-triazole-3-thione] |  |  |  |  | 141 (≈ 469 µM) | 17.79 | 151.9 | 
35 | Cc1nc[nH]c1C(=O)NNC(=S)Nc1c(C(C)C)cccc1C(C)C [24a] | 190.55 (≈ 530 µM) | 1.95 | 97.72 µg/mL (≈ 272 µM) |  |  |  |  | 
36 | Cc1nc[nH]c1C(=O)NNC(=S)Nc1ccc(N(C)C)cc1 [25a] | 112.2 (≈ 352 µM) | 0.68 | ∼164.70 µg/mL |  |  |  |  | 
37 | CCN(CC)c1ccc(NC(=S)NNC(=O)c2[nH]cnc2C)cc1 [26a] | 63.1 (≈ 182 µM) | 2.46 | 25.70 µg/mL (≈ 74.2 µM) |  |  |  |  | 
38 | CCc1nc(N)nc(N)c1-c1ccc(Cl)cc1 [PYR, pyrimethamine] |  |  |  | 11.37 (≈ 45.7 µM) | 1.79 (≈ 7.2 µM) | 6.34 |  | 
39 | Nc1ccc(S(=O)(=O)Nc2ncccn2)cc1 [SDZ, sulfadiazine] |  |  |  | 2161.72 (≈ 8640 µM) |  | 0.44 |  | 4860 (≈ 19400 µM)
40 | COc1cc(Cc2cnc(N)nc2N)cc(OC)c1OC [TRI, trimethoprim, reference compound] |  |  |  | 336.20 (≈ 1160 µM) |  | 16.07 |  | 20.9 (≈ 72.1 µM)
